Values quoted from earlier work in US20050065129A1, “2-Alkylidene-19-nor-vitamin D derivatives for the treatment of frailty, muscle damage or sarcopenia” (Pfizer Inc, priority 2003, published 2005).

Assays:
[1] = test system: Intestinal Calcium Transport; conditions: chronic 7 days, 130 and/or 260 pmol/day, rats
[2] = test system: Serum Calcium (Bone Calcium Mobilization); conditions: chronic 7 days, rats; for bone calcium mobilization activity (in words): 130 and 260 pmol/day

## C=C1/C(=C\C=C2/CCC[C@]3(C)[C@@H]([C@H](C)CCCC(C)(C)O)CC[C@@H]23)C[C@@H](O)C[C@@H]1O [1,25-(OH)2D3, 1,25-dihydroxyvitamin D3, reference compound]
[1]
  intestinal calcium transport activity (in words): expected elevation

## C=C1[C@H](O)CC(=C/C=C2\CCC[C@]3(C)[C@@H]([C@H](C)CCCC(C)(C)O)CC[C@@H]23)C[C@H]1O [2-Methylene-19-Nor-1,25-(OH)2D3, 1α,25-dihydroxy-2-methylene-19-nor-vitamin D3]
[1]
  intestinal calcium transport activity (in words): no intestinal calcium transport activity
[2]
  bone calcium mobilization activity (in words): extremely strong bone calcium mobilization
[2]; estimate
  bone calcium mobilization (serum calcium) activity relative to 1,25-(OH)2D3 (native hormone): 10-100 times

## C=C1[C@H](O)CC(=C/C=C2\CCC[C@]3(C)[C@@H]([C@@H](C)CCCC(C)(C)O)CC[C@@H]23)C[C@H]1O [2-Methylene-19-Nor-20S-1,25-(OH)2D3, (20S)-1α,25-dihydroxy-2-methylene-19-nor-vitamin D3]
[1]
  intestinal calcium transport activity (in words): no significant change
[2]
  bone calcium mobilization activity (in words): most potent compound tested
